Laboratory results: PubChem BioAssay AID2060625 (Molecular Pharmacology Branch, DTP, NCI, 2025)
Where “and” joins values, the source holds several entries; their conditions need not be identical. Equal values may be shown once.

Tested on: 186277-243-T-J2-PDC spheroids with HUVEC/MSC, viability
Test: Anticancer human tumor 186277-243-T-J2-PDC patient-derived colon adenocarcinoma cell line growth inhibition [CLK]
Settings: for viability, T/C: stronger effect = lower value
How it was run: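 Patient-derived tumor cells grown as complex spheroids with HUVEC endothelial cells and mesenchymal stem cells, treated with drug combinations. Concentrations descend in half-log steps from near clinical Cmax, or from 10 microM if Cmax unknown.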

[1] = curve of first compound, second compound 0.0316 µM
[2] = curve of first compound, second compound 0.1 µM
[3] = curve of first compound, second compound 0.316 µM
[4] = curve of first compound, second compound 1 µM
[5] = curve of first compound, second compound 3.16 µM
[6] = curve of first compound, second compound 10 µM
[7] = second compound 0.0316 µM, first compound 0.00316 µM
[8] = second compound 0.0316 µM, first compound 0.01 µM
[9] = second compound 0.0316 µM, first compound 0.0316 µM
[10] = second compound 0.0316 µM, first compound 0.1 µM
[11] = second compound 0.0316 µM, first compound 0.316 µM
[12] = second compound 0.0316 µM, first compound 1 µM
[13] = second compound 0.1 µM, first compound 0.00316 µM
[14] = second compound 0.1 µM, first compound 0.01 µM
[15] = second compound 0.1 µM, first compound 0.0316 µM
[16] = second compound 0.1 µM, first compound 0.1 µM
[17] = second compound 0.1 µM, first compound 0.316 µM
[18] = second compound 0.1 µM, first compound 1 µM
[19] = second compound 0.316 µM, first compound 0.00316 µM
[20] = second compound 0.316 µM, first compound 0.01 µM
[21] = second compound 0.316 µM, first compound 0.0316 µM
[22] = second compound 0.316 µM, first compound 0.1 µM
[23] = second compound 0.316 µM, first compound 0.316 µM
[24] = second compound 0.316 µM, first compound 1 µM
[25] = second compound 1 µM, first compound 0.00316 µM
[26] = second compound 1 µM, first compound 0.01 µM
[27] = second compound 1 µM, first compound 0.0316 µM
[28] = second compound 1 µM, first compound 0.1 µM
[29] = second compound 1 µM, first compound 0.316 µM
[30] = second compound 1 µM, first compound 1 µM
[31] = second compound 3.16 µM, first compound 0.00316 µM
[32] = second compound 3.16 µM, first compound 0.01 µM
[33] = second compound 3.16 µM, first compound 0.0316 µM
[34] = second compound 3.16 µM, first compound 0.1 µM
[35] = second compound 3.16 µM, first compound 0.316 µM
[36] = second compound 3.16 µM, first compound 1 µM
[37] = second compound 10 µM, first compound 0.00316 µM
[38] = second compound 10 µM, first compound 0.01 µM
[39] = second compound 10 µM, first compound 0.0316 µM
[40] = second compound 10 µM, first compound 0.1 µM
[41] = second compound 10 µM, first compound 0.316 µM
[42] = second compound 10 µM, first compound 1 µM
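Further: compound exposure lasted seven days before readout.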
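Wherever viability, T/C is given: 100% = DMSO vehicle control wells.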

CCN1CCN(Cc2ccc(Nc3ncc(F)c(-c4cc(F)c5nc(C)n(C(C)C)c5c4)n3)nc2)CC1 + CNC(=O)c1ccc(Nc2nc(OC3CCCC3)c3c(-c4ccc5nc(C)oc5c4)c[nH]c3n2)c(OC)c1
IC50 [1]: > 1000 nM | IC50 [2]: > 1000 nM | IC50 [3]: > 1000 nM | IC50 [4]: < 3.16 nM | IC50 [5]: < 3.16 nM | IC50 [6]: < 3.16 nM | viability, T/C [7]: 123% | viability, T/C [8]: 101% | viability, T/C [9]: 148% | viability, T/C [10]: 116% | viability, T/C [11]: 125% | viability, T/C [12]: 117% | viability, T/C [13]: 92.7% | viability, T/C [14]: 98.5% | viability, T/C [15]: 104% | viability, T/C [16]: 103% | viability, T/C [17]: 114% | viability, T/C [18]: 104% | viability, T/C [19]: 59% | viability, T/C [20]: 64.3% | viability, T/C [21]: 71.6% | viability, T/C [22]: 78.8% | viability, T/C [23]: 76.5% | viability, T/C [24]: 74.8% | viability, T/C [25]: 41.8% | viability, T/C [26]: 47.8% | viability, T/C [27]: 48.3% | viability, T/C [28]: 60.5% | viability, T/C [29]: 58.1% | viability, T/C [30]: 61.5% | viability, T/C [31]: 39.1% | viability, T/C [32]: 39.2% | viability, T/C [33]: 45.2% | viability, T/C [34]: 47% | viability, T/C [35]: 51.9% | viability, T/C [36]: 59.6% | viability, T/C [37]: 41% | viability, T/C [38]: 39.9% | viability, T/C [39]: 46.5% | viability, T/C [40]: 43.4% | viability, T/C [41]: 47.8% | viability, T/C [42]: 46.9%

O=C(c1cc(Cc2n[nH]c(=O)c3ccccc23)ccc1F)N1CCN(C(=O)C2CC2)CC1
viability, T/C (compound 0.0316 µM): 102% | viability, T/C (compound 0.1 µM): 90% and 99.4% | viability, T/C (compound 0.316 µM): 101% and 109% | viability, T/C (compound 1 µM): 114% and 110% | viability, T/C (compound 3.16 µM): 118% and 119% | viability, T/C (compound 10 µM): 126% and 103% | IC50 (curve of compound): > 10000 nM

CNC(=O)c1ccc(Nc2nc(OC3CCCC3)c3c(-c4ccc5nc(C)oc5c4)c[nH]c3n2)c(OC)c1
viability, T/C (compound 0.1 µM): 67.9% [middle of 12 runs] | viability, T/C (compound 0.316 µM): 46.2% [middle of 12 runs] | viability, T/C (compound 1 µM): 33% [middle of 12 runs] | viability, T/C (compound 3.16 µM): 32.1% [middle of 12 runs] | viability, T/C (compound 10 µM): 33.9% [middle of 11 runs] | IC50 (compound alone, run of 08/15/2023): 241 nM [middle of 12 runs]

CCc1c2c(nc3ccc(O)cc13)-c1cc3c(c(=O)n1C2)COC(=O)[C@]3(O)CC + CN1CCN(c2cc(C(=O)Nc3cc4cc(-c5cnn(C)c5)ccc4cn3)ccn2)CC1
IC50 [1]: 22.6 nM | IC50 [2]: 14.1 nM | IC50 [3]: < 3.16 nM | IC50 [4]: < 3.16 nM | IC50 [5]: < 3.16 nM | IC50 [6]: < 3.16 nM | viability, T/C [7]: 82.2% | viability, T/C [8]: 73.1% | viability, T/C [9]: 39.9% | viability, T/C [10]: 22.3% | viability, T/C [11]: 19.1% | viability, T/C [12]: 14.1% | viability, T/C [13]: 66.9% | viability, T/C [14]: 58.6% | viability, T/C [15]: 31.4% | viability, T/C [16]: 17.5% | viability, T/C [17]: 14.3% | viability, T/C [18]: 8.76% | viability, T/C [19]: 17.9% | viability, T/C [20]: 19% | viability, T/C [21]: 14.4% | viability, T/C [22]: 8.65% | viability, T/C [23]: 2.67% | viability, T/C [24]: 1.34% | viability, T/C [25]: 1.11% | viability, T/C [26]: 3.1% | viability, T/C [27]: 1.69% | viability, T/C [28]: 0.66% | viability, T/C [29]: 1.14% | viability, T/C [30]: 1.75% | viability, T/C [31]: 0.95% | viability, T/C [32]: 2.49% | viability, T/C [33]: 1.5% | viability, T/C [34]: 1.25% | viability, T/C [35]: 2.1% | viability, T/C [36]: 1.56% | viability, T/C [37]: 0.8% | viability, T/C [38]: 1.71% | viability, T/C [39]: 0.41% | viability, T/C [40]: 1.3% | viability, T/C [41]: 0.67% | viability, T/C [42]: 0.26%

CCc1c2c(nc3ccc(O)cc13)-c1cc3c(c(=O)n1C2)COC(=O)[C@]3(O)CC + CNC(=O)c1ccc(Nc2nc(OC3CCCC3)c3c(-c4ccc5nc(C)oc5c4)c[nH]c3n2)c(OC)c1
IC50 [1]: 24.4 nM | IC50 [2]: 22.3 nM | IC50 [3]: 11.5 nM | IC50 [4]: < 3.16 nM | IC50 [5]: < 3.16 nM | IC50 [6]: < 3.16 nM | viability, T/C [7]: 101% | viability, T/C [8]: 73.3% | viability, T/C [9]: 43.3% | viability, T/C [10]: 23.4% | viability, T/C [11]: 16.7% | viability, T/C [12]: 11.2% | viability, T/C [13]: 77.8% | viability, T/C [14]: 71% | viability, T/C [15]: 40.5% | viability, T/C [16]: 19.2% | viability, T/C [17]: 16.6% | viability, T/C [18]: 10.3% | viability, T/C [19]: 64.4% | viability, T/C [20]: 54% | viability, T/C [21]: 21% | viability, T/C [22]: 12.9% | viability, T/C [23]: 12.4% | viability, T/C [24]: 7.31% | viability, T/C [25]: 47.3% | viability, T/C [26]: 31.8% | viability, T/C [27]: 12.8% | viability, T/C [28]: 8.64% | viability, T/C [29]: 5.93% | viability, T/C [30]: 4% | viability, T/C [31]: 43.4% | viability, T/C [32]: 23.8% | viability, T/C [33]: 8.87% | viability, T/C [34]: 10.9% | viability, T/C [35]: 6.99% | viability, T/C [36]: 3.82% | viability, T/C [37]: 40.6% | viability, T/C [38]: 24% | viability, T/C [39]: 10.3% | viability, T/C [40]: 6.46% | viability, T/C [41]: 7.11% | viability, T/C [42]: 4.09%

C=C(F)C(=O)N1CCN(c2nc(OCC3CCCN3C)nc3c2CCN(c2cccc4cccc(Cl)c24)C3)CC1CC#N (configuration not stated)
viability, T/C (compound 0.0316 µM): 79% and 94.1% | viability, T/C (compound 0.1 µM): 82.2% and 88.8% | viability, T/C (compound 0.316 µM): 93% and 82.2% | viability, T/C (compound 1 µM): 83.4% and 89.4% | viability, T/C (compound 3.16 µM): 101% and 109% | IC50 (curve of compound): 5270 nM and 7510 nM

O=C(c1cc(Cc2n[nH]c(=O)c3ccccc23)ccc1F)N1CCN(C(=O)C2CC2)CC1 + CN1CCN(c2cc(C(=O)Nc3cc4cc(-c5cnn(C)c5)ccc4cn3)ccn2)CC1
IC50 [1]: > 10000 nM | IC50 [2]: > 10000 nM | IC50 [3]: < 31.6 nM | IC50 [4]: < 31.6 nM | IC50 [5]: < 31.6 nM | IC50 [6]: < 31.6 nM | viability, T/C [9]: 95.8% | viability, T/C [10]: 97.4% | viability, T/C [11]: 97.2% | viability, T/C [12]: 103% | viability, T/C (second compound 0.0316 µM, first compound 3.16 µM): 102% | viability, T/C (second compound 0.0316 µM, first compound 10 µM): 93.6% | viability, T/C [15]: 82.5% | viability, T/C [16]: 82.8% | viability, T/C [17]: 82.7% | viability, T/C [18]: 73.9% | viability, T/C (second compound 0.1 µM, first compound 3.16 µM): 73.2% | viability, T/C (second compound 0.1 µM, first compound 10 µM): 69% | viability, T/C [21]: 24.6% | viability, T/C [22]: 25.8% | viability, T/C [23]: 23.1% | viability, T/C [24]: 24.8% | viability, T/C (second compound 0.316 µM, first compound 3.16 µM): 24.2% | viability, T/C (second compound 0.316 µM, first compound 10 µM): 21.7% | viability, T/C [27]: 0.33% | viability, T/C [28]: 0.74% | viability, T/C [29]: 2.04% | viability, T/C [30]: 0.29% | viability, T/C (second compound 1 µM, first compound 3.16 µM): 1.71% | viability, T/C (second compound 1 µM, first compound 10 µM): 0.32% | viability, T/C [33]: 2.76% | viability, T/C [34]: 1.64% | viability, T/C [35]: 1.3% | viability, T/C [36]: 1.29% | viability, T/C (second compound 3.16 µM, first compound 3.16 µM): 1.16% | viability, T/C (second compound 3.16 µM, first compound 10 µM): 1.05% | viability, T/C [39]: 1.59% | viability, T/C [40]: 0.89% | viability, T/C [41]: 0.83% | viability, T/C [42]: 0.77% | viability, T/C (second compound 10 µM, first compound 3.16 µM): 1.1% | viability, T/C (second compound 10 µM, first compound 10 µM): 0.59%
